These are literature values, as cited in US12440501B2, “Cannabinoid compositions and methods of use thereof for immune modulation” (SRIN Therapeutics, Inc., priority 2019, dated 2025).

The subject of one data set is xenograft tumors. Conditions: regardless of Ras/Raf pathway deregulation.
The subject of data set [1] is BRAF(V600E), BRAF(wild type), c-RAF, VEGFR2, PDGFR, CSF1R, RET, c-KIT, SRC, STE20. Conditions: range over several intracellular kinases.
For data set [2] the following is noted: mice, 120 mg/kg i.p.
The next data set has as its system VEGFR expression. Conditions: doses of 1-5 mg/kg.
For data set [3], the system named is ICAM-1 expression on A549. Conditions: in vitro.
The subject of data set [4] is HCT116.
The test system of data set [5] is HCT116. The source holds these as a separate data set.
Another data set has as its target GPR55 (Homo sapiens, UniProt Q9Y2T6).
Another data set relates to melanoma. The following applies: share of melanoma patients.

GPR55, sequence (Q9Y2T6 whole entry, species assumed): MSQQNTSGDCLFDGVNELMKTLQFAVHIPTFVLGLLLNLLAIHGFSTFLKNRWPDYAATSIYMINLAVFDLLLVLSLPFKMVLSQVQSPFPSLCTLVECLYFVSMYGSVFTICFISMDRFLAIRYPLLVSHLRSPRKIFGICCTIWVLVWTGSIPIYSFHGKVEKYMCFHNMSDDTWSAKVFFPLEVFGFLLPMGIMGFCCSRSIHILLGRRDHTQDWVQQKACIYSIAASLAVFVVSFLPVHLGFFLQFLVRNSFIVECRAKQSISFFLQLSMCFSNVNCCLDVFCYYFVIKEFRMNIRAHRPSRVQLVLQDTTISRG

Consider `Cn1cnc2c(F)c(Nc3ccc(Br)cc3F)c(C(=O)NOCCO)cc21` [MEK162], for which the “inhibition of growth of xenograft tumors” value with xenograft tumors was “highly effective in inhibiting growth of xenograft tumors”.
A word on the IC50: it is the midpoint of a concentration-inhibition curve. With `Cn1c(Nc2ccc(C(F)(F)F)cc2)nc2cc(Oc3ccnc(-c4ncc(C(F)(F)F)[nH]4)c3)ccc21` [RAF265], in data set [1], the IC50 is […].
Consider `C=C(C)[C@@H]1CCC(C)=C[C@H]1c1c(O)cc(CCCCC)cc1O` [cannabidiol], for which the peak plasma levels in data set [2] was 14.3 µg/mL. The plasma levels in data set [2] was 14300 ng/mL. The anti-proliferative effect entry in the data set with Caco-2 and in the data set with HCT116 [4] was “significant anti-proliferative effect” throughout. The VEGFR expression result with VEGFR expression is recorded as “significantly reduce VEGFR expression”. Also, in data set [3], the ICAM-1 expression result is on record as “upregulates ICAM-1 expression”. Also, the “inhibition of A549 invasion and metastasis” value with A549 is “profound inhibition”. Also, the apoptosis entry with HCT116 [5] and with DLD-1 was “induces apoptosis” in each case. At GPR55, the “activity at GPR55” value is “antagonist”.
As to “ipilimumab: FDA-approved immune checkpoint inhibitor targeting CTLA-4”, the “responses in melanoma patients” value in the data set with melanoma was about 50%.
As for “nivolumab: FDA-approved immune checkpoint inhibitor targeting PD-1”, the “responses in melanoma patients” value in the data set with melanoma was about 50%.
Take “pembrolizumab: FDA-approved immune checkpoint inhibitor targeting PD-1”: the “responses in melanoma patients” value in the data set on melanoma was about 50%.
